Results reported in patent US20120115802A1, “Method for using ulipristal acetate with cytochrome isozyme modulators” (LABORATOIRE HRA PHARMA, priority 2010, published 2012).

Experiments:
[1] = Metabolism in liver microsomal preparations; format: in vitro ADME, mice, rats, rabbits, dogs, monkeys and humans; conditions: in vitro
Text: Metabolism of ulipristal acetate was investigated in vitro in liver microsomal preparations from mice, rats, rabbits, dogs, monkeys and humans.

[2] = used within 72 hours of unprotected intercourse; cited from earlier work

Q: For `CC(=O)O[C@]1(C(C)=O)CC[C@H]2[C@@H]3CCC4=CC(=O)CCC4=C3[C@@H](c3ccc(N(C)C)cc3)C[C@@]21C` [ulipristal acetate, 17α-acetoxy-11β-[4-N,N-dimethylamino-phenyl)-19-norpregna-4,9-diene-3,20-dione], which “Metabolites produced in liver microsomes across species” value ([1]; liver microsomes from mice, rats, rabbits, dogs, monkeys and humans, proportions varied between species) is on record?
A: All species produced the same two major metabolites

Q: And the “Metabolite unique to humans” value ([1]; liver microsomes, humans compared with the other species)?
A: No metabolite was detected which was unique to humans

Q: What about the “Efficacy for preventing pregnancy compared with levonorgestrel” value [2] of the same molecule?
A: as efficacious as levonorgestrel
